Drawing on patent publication US4545991A, “Difficidin and derivative antibacterials” (Merck & Co., Inc., priority 1983, dated 1985), this text covers MIC and ED50 for two compounds.

In brackets after ≈: the same amount, converted by molar mass. Where two headings read alike, the source gives them in different places.

For assay [1], the system named is S. aureus Gm^R Meth^R. The assay is described as follows: MIC, in vitro agar dilution assay, aerobic bacteria (Table II). In kind it is cell-based. The note with it: Staphylococcus aureus. In general terms: In agar dilution the substance is mixed into plates at graded concentrations.
Assay [2] relates to E. coli. The assay is described as above. The class given is cell-based. Particulars: Escherichia coli, 10^6 CFU per spot, read-out: MIC. From the text:
(§1) Further evaluations of the antibacterial spectrum of difficidin and oxydifficidin were undertaken, especially as compared to the antibacterial spectrum of the valuable antibiotic cefoxitin, which is well known for its wide spectrum of antibacterial activity. An in vitro agar dilution assay was used, inoculum 10^6 CFU per spot. Table II below illustrates the results obtained for various aerobic bacteria, and Table III illustrates the results obtained for various anaerobic bacteria.

The test system of assay [3] is S. aureus. The description is as above. The class given is cell-based. The note with it: Staphylococcus aureus, 10^6 CFU per spot, read-out: MIC.
From the text: as §1

For assay [4], the system named is Strep. faecalis. Described as above. The class given is cell-based. Particulars: Enterococcus faecalis, 10^6 CFU per spot, read-out: MIC.
From the text: as §1

The subject of assay [5] is E. coli TEM 2^+. The assay is described as above. In kind it is cell-based. The note with it: Escherichia coli.
The subject of assay [6] is E. coli TEM 2^+ DC 2. Described as above. In kind it is cell-based. Particulars: Escherichia coli.
Assay [7] has as its system E. coli DC 2. The assay is described as above. In kind it is cell-based. Particulars: Escherichia coli, DC2.
Assay [8] concerns Sal. typhimurium. The assay is described as above. The class given is cell-based. Particulars: Salmonella enterica, 10^6 CFU per spot, read-out: MIC.
Assay [9] has as its system Ent. cloacae P99^+. The assay is described as above. The class given is cell-based. Particulars: Enterobacter cloacae.
Assay [10] concerns Ent. cloacae P99^-. The assay is described as above. The class given is cell-based. Particulars: Enterobacter cloacae.
The test system of assay [11] is Ent. aerogenes. The description is as above. In kind it is cell-based. Particulars: Klebsiella aerogenes.
In assay [12] the test system is K. pneumoniae Kl^+. The assay is described as above. In kind it is cell-based. Particulars: Klebsiella pneumoniae, 10^6 CFU per spot, read-out: MIC.
Assay [13] relates to Prot. vulgaris. Described as above. The class given is cell-based. The note with it: Proteus vulgaris, 10^6 CFU per spot, read-out: MIC.
The subject of assay [14] is Prot. morganii Sm^R. The description is as above. Particulars: Morganella morganii. In kind it is cell-based.
In assay [15] the test system is Prot. mirabilis Gm^R. Described as above. In kind it is cell-based. Particulars: Proteus mirabilis, 10^6 CFU per spot, read-out: MIC.
Assay [16] relates to Ps. aeruginosa RPL 11^+. The assay is described as above. Particulars: Pseudomonas aeruginosa. In kind it is cell-based.
Assay [17] deals with Ps. aeruginosa. The assay is described as above. The class given is cell-based. Particulars: Pseudomonas aeruginosa.
Assay [18] has as its system Ps. aeruginosa. The assay is described as above. The note with it: Pseudomonas aeruginosa. In kind it is cell-based. This is another data set of the same source.
Assay [19] concerns Ser. marcescens. Described as above. The class given is cell-based. The note with it: Serratia marcescens, 10^6 CFU per spot, read-out: MIC.
For assay [20], the system named is Actinomyces naeslundii. The assay is described as follows: MIC, in vitro agar dilution assay, anaerobic bacteria (Table III). In kind it is cell-based. The note with it: 10^6 CFU per spot, read-out: MIC.
Assay [21] concerns Eubacterium limosum. The description is as above. In kind it is cell-based. Particulars: 10^6 CFU per spot, read-out: MIC.
Assay [22] deals with Propionibacterium acnes. The description is as above. The note with it: Cutibacterium acnes, 10^6 CFU per spot, read-out: MIC. The class given is cell-based.
Assay [23] has as its system Peptostreptococcus anaerobius. Described as above. The note with it: 10^6 CFU per spot, read-out: MIC. The class given is cell-based.
Assay [24] deals with Clostridium perfringens NCCLS control strain. Briefly: microbe, parasite or virus in culture. In kind it is cell-based. Particulars: Clostridium perfringens.
Assay [25] concerns C. ramosum. Briefly: MIC, in vitro agar dilution assay, anaerobic bacteria (Table III). In kind it is cell-based. The note with it: Thomasclavelia ramosa, 10^6 CFU per spot, read-out: MIC.
For assay [26], the system named is C. difficile Clind^r, Fox^r. The assay is described as above. The note with it: Clostridioides difficile, 10^6 CFU per spot, read-out: MIC. The class given is cell-based.
Assay [27] concerns C. difficile Fox^r. The description is as above. The class given is cell-based. Particulars: Clostridioides difficile.
The test system of assay [28] is Bifidobacterium dentium Fox^r. Described as above. The class given is cell-based. Particulars: Bifidobacterium dentium.
In assay [29] the test system is Bacteriodes fragilis Metr^r, Pen^r. The assay is described as above. The class given is cell-based. The note with it: 10^6 CFU per spot, read-out: MIC.
Assay [30] deals with B. fragilis Pen^r. Described as above. The note with it: Bacteroides fragilis, 10^6 CFU per spot, read-out: MIC. The class given is cell-based.
In assay [31] the test system is B. fragilis Clind^r Fox^r Tet^r. The description is as above. The class given is cell-based. The note with it: Bacteroides fragilis, 10^6 CFU per spot, read-out: MIC.
For assay [32], the system named is B. fragilis NCCLS control strain. The description is as above. The class given is cell-based. The note with it: Bacteroides fragilis, 10^6 CFU per spot, read-out: MIC.
In assay [33] the test system is B. distasonis Pen^r Fox^r Clind^r. Described as above. In kind it is cell-based. The note with it: Parabacteroides distasonis, 10^6 CFU per spot, read-out: MIC.
For assay [34], the system named is B. distasonis Pen^r Fox^r. The assay is described as above. In kind it is cell-based. Particulars: Parabacteroides distasonis, 10^6 CFU per spot, read-out: MIC.
In assay [35] the test system is B. ovatus Pen^r. The assay is described as above. In kind it is cell-based. The note with it: Bacteroides ovatus, 10^6 CFU per spot, read-out: MIC.
Assay [36] concerns B. thetaiotaomicron Clind^r. Described as above. Particulars: Bacteroides thetaiotaomicron, 10^6 CFU per spot, read-out: MIC. The class given is cell-based.
Assay [37] concerns B. thetaiotaomicron Clind^r, NCCLS control strain. Described as above. The class given is cell-based. Particulars: Bacteroides thetaiotaomicron, 10^6 CFU per spot, read-out: MIC.
Assay [38] deals with Fusobacterium mortiferum Fox^r. Described as above. The class given is cell-based. Particulars: 10^6 CFU per spot, read-out: MIC.
Assay [39] deals with Veillonella alcalescens. The description is as above. The class given is cell-based. The note with it: Veillonella parvula, 10^6 CFU per spot, read-out: MIC.
Assay [40] deals with Klebsiella pneumoniae MB 4005. Briefly: standard mouse protection test, experimental systemic infection. The class given is in vivo, CD1 female mice. The note with it: Klebsiella pneumoniae, MB4005, ip, 168 h, × 2 i.p. doses (immediately after infection and 6 hours later), 7 days. The protocol:
The antibacterial efficacy of difficidin and its derivatives was further determined in standard mouse protection tests. An experimental systemic infection was produced in CD1 female mice (Charles River Breeding Laboratories, Wilmington, MA) by the intraperitoneal injection of a suitably diluted broth culture of Klebsiella pneumoniae MB 4005. The test antibacterial compounds and the control drug (streptomycin) were administered parenterally (intraperitoneally) immediately after infection and again 6 hours later. At least 4 fourfold dilutions of each agent were tested. There were 5 mice at each dose level. […] Under the conditions of the test, all infected untreated mice died within 48 hours.
Mice were protected by the administration of the test antibacterial compounds or streptomycin at the median effective doses shown in Table IV below.

In general, ED50 refers to the midpoint of the dose-response relation. A lower ED50 goes with an effect at a small dose.

In the case of `CO[C@@]1(NC(=O)Cc2cccs2)C(=O)N2C(C(=O)O)=C(COC(N)=O)CS[C@@H]21` [Cefoxitin, cefoxitin, reference compound], the MIC is over 128 µg/mL in assay [1]; over 128 µg/mL in [2]; 2 µg/mL (≈ 4.68 µM) in assay [3] (first unmarked strain); 2 µg/mL (≈ 4.68 µM) in assay [3] (second unmarked strain); over 128 µg/mL in [4]; 4 µg/mL (≈ 9.36 µM) in assay [5]. Besides, the MIC is 1 µg/mL (≈ 2.34 µM) in assay [6]; 1 µg/mL (≈ 2.34 µM) in assay [7]; 8 µg/mL (≈ 18.7 µM) in assay [8]; over 128 µg/mL in assay [9]; 16 µg/mL (≈ 37.4 µM) in assay [10]; over 128 µg/mL in assay [11]. Also, the MIC in [12] was 4 µg/mL (≈ 9.36 µM); in [13] it was 16 µg/mL (≈ 37.4 µM); in assay [14] it was 16 µg/mL (≈ 37.4 µM); in assay [15], 32 µg/mL (≈ 74.9 µM); in [16] it was over 128 µg/mL; in assay [17] it was over 128 µg/mL. Further, the MIC is over 128 µg/mL in assay [18]; 64 µg/mL (≈ 150 µM) in [19]; 0.015 µg/mL (≈ 0.0351 µM) in assay [20]; 0.25 µg/mL (≈ 0.585 µM) in assay [21]; at most 0.008 µg/mL in assay [22]; at most 0.008 µg/mL in [23]. The MIC in [24] was 0.5 µg/mL (≈ 1.17 µM); in [25], 4 µg/mL (≈ 9.36 µM); in assay [26], 64 µg/mL (≈ 150 µM); in assay [27], 128 µg/mL (≈ 299 µM); in [28] it was 4 µg/mL (≈ 9.36 µM); in assay [29], 2 µg/mL (≈ 4.68 µM). The MIC in assay [30] is 8 µg/mL (≈ 18.7 µM); in [31], 32 µg/mL (≈ 74.9 µM); in [32], 4 µg/mL (≈ 9.36 µM); in assay [33], 16 µg/mL (≈ 37.4 µM); in assay [34] it was 64 µg/mL (≈ 150 µM); in assay [35] it was 8 µg/mL (≈ 18.7 µM). Also, the MIC was 16 µg/mL (≈ 37.4 µM) in assay [36], 16 µg/mL (≈ 37.4 µM) in assay [37], 16 µg/mL (≈ 37.4 µM) in assay [38] and 0.5 µg/mL (≈ 1.17 µM) in assay [39].

With `[H]/N=C(/N)N[C@H]1[C@H](O)[C@@H](O)[C@H](O[C@@H]2O[C@@H](C)[C@](O)(C=O)[C@H]2O[C@@H]2O[C@@H](CO)[C@H](O)[C@@H](O)[C@@H]2NC)[C@@H](N/C(N)=N\[H])[C@@H]1O` [Streptomycin, streptomycin, reference compound], the ED50 was 0.38 mg/kg in assay [40] (Test No. 1), 1.41 mg/kg in assay [40] (Test No. 2) and 0.38 mg/kg in [40] (Test No. 3).
